In patent publication US11739074B2, “Ras inhibitors” (Revolution Medicines, Inc., priority 2019, dated 2023) one finds IC50 data, which are given here for 5 compounds.

One assay deals with KRAS G12S (Homo sapiens, UniProt P01116+P62937, G12S). Kind of assay: Ras-Raf disruption/FRET/MOA assay, KRAS G12S. The assay is classed as biochemical. An excerpt:
(§1) Disruption of B-Raf Ras-Binding Domain (BRAF^RBD) Interaction with K-Ras by Compounds of the Invention (Also Called a FRET Assay or an MOA Assay)
(§2) Note—The following protocol describes a procedure for monitoring disruption of K-Ras G12C (GMP-PNP) binding to BRAF^RBD by a compound of the invention. This protocol may also be executed substituting other Ras proteins or nucleotides, such as K-Ras G12D and K-Ras G13D.
(§3) The purpose of this biochemical assay was to measure the ability of test compounds to facilitate ternary complex formation between a nucleotide-loaded K-Ras isoform and Cyclophilin A; the resulting ternary complex disrupts binding to a BRAF^RBD construct, inhibiting K-Ras signaling through a RAF effector.
(§4) In assay buffer containing 25 mM HEPES pH 7.3, 0.002% Tween20, 0.1% BSA, 100 mM NaCl and 5 mM MgCl2, tagless Cyclophilin A, His6-K-Ras-GMPPNP, and GST-BRAF^RBD were combined in a 384-well assay plate at final concentrations of 25 μM, 12.5 nM, and 50 nM, respectively. Compound was present in plate wells as a 10-point 3-fold dilution series starting at a final concentration of 30 μM. After incubation at 25° C. for 3 hours, a mixture of anti-His Eu-W1024 and anti-GST allophycocyanin was then added to assay sample wells at final concentrations of 10 nM and 50 nM, respectively, and the reaction incubated for an additional 1.5 hours. […] Compounds that facilitate disruption of a K-Ras:RAF complex were identified as those eliciting a decrease in the TR-FRET ratio relative to DMSO control wells.

The subject of another assay is AsPC-1 (K-Ras G12D). Kind of assay: CellTiter-Glo cell viability assay, AsPC-1. Format: cell-based. Particulars: Homo sapiens, ASPC1, 120 h. In short, it runs like this: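 Luminescence from CellTiter-Glo serves as the viability read-out after cells are treated with compound for 5 days. Each well's signal is divided by the DMSO average and multiplied by 100, and curves are fitted by four-parameter logistic regression.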

Another assay addresses KRAS G12V (Homo sapiens, UniProt P01116+P62937, G12V). Nature of the assay: Ras-Raf disruption/FRET/MOA assay, KRAS G12V. Format: biochemical.
Excerpt: as §1, §2, §3, §4

A further assay addresses KRAS G12D (Homo sapiens, UniProt P01116+P62937, G12D). Nature of the assay: Ras-Raf disruption/FRET/MOA assay, KRAS G12D. The assay is classed as biochemical.
Excerpt: as §1, §2, §3, §4

Another assay concerns the target KRAS WT (Homo sapiens, UniProt P01116+P62937). Nature of the assay: Ras-Raf disruption/FRET/MOA assay, KRAS WT. The assay is classed as biochemical.
Excerpt: as §1, §2, §3, §4

A further assay has as its target KRAS G13C (Homo sapiens, UniProt P01116+P62937, G13C). Kind of assay: Ras-Raf disruption/FRET/MOA assay, KRAS G13C. Format: biochemical.
Excerpt: as §1, §2, §3, §4

A further assay addresses T1, NRAS G12C (Homo sapiens, UniProt P01111+P62937, G12C).
T1 construct: His6
Kind of assay: Ras-Raf disruption/FRET/MOA assay, NRAS G12C. The assay is classed as biochemical.
Excerpt: as §1, §2, §3, §4

Another assay has as its target KRAS G13D (Homo sapiens, UniProt P01116+P62937, G13D). Kind of assay: Ras-Raf disruption/FRET/MOA assay, KRAS G13D. The assay is classed as biochemical.
Excerpt: as §1, §2, §3, §4

Another assay addresses KRAS G12C (Homo sapiens, UniProt P01116+P62937, G12C). Nature of the assay: Ras-Raf disruption/FRET/MOA assay, KRAS G12C. The assay is classed as biochemical.
Excerpt: as §1, §2, §3, §4

Where [1] appears, read: disruption of BRAF RBD binding, with Cyclophilin A, read-out: KRAS G12S FRET IC50.
The mark [2] stands for this setting: AsPC-1, K-Ras G12D, 5-day treatment, read-out: AsPC-1 Cell Viability IC50.
Setting [3] is: disruption of BRAF RBD binding, with Cyclophilin A, read-out: KRAS G12V FRET IC50.
[4] abbreviates: disruption of BRAF RBD binding, with Cyclophilin A, read-out: KRAS G12D FRET IC50.
The mark [5] stands for this setting: disruption of BRAF RBD binding, with Cyclophilin A, read-out: KRAS WT FRET IC50.
[6] abbreviates: disruption of BRAF RBD binding, with Cyclophilin A, read-out: KRAS G13C FRET IC50.
Setting [7] is: NRAS G12C, read-out: NRAS G12C FRET data IC50.
Where [8] appears, read: disruption of BRAF RBD binding, with Cyclophilin A, read-out: KRAS G13D FRET IC50.
Setting [9] is: disruption of BRAF RBD binding, with Cyclophilin A, read-out: KRAS G12C FRET IC50.

Molecules are shown by their SMILES. Where two headings read alike, the source gives them in different places.

T1 sequence (P01111 whole entry G12C): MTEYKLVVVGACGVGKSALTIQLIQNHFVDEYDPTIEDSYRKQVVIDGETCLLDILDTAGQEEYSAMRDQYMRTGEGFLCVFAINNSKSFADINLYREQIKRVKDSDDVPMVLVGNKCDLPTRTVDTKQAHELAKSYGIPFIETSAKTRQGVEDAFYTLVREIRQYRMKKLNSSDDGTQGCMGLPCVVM
T1 sequence (P62937 whole entry): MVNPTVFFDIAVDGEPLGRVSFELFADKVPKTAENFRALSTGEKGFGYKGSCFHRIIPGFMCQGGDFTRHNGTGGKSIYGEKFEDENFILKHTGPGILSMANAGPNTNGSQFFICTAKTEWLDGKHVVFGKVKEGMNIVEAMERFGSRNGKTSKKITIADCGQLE
Chain of KRAS G12S (P01116 1-169 isoform P01116-2 G12S limits assumed): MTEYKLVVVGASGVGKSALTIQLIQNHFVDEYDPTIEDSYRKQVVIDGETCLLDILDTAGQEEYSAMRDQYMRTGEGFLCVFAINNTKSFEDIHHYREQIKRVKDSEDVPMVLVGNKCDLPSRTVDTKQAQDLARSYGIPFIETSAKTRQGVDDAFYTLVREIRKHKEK
Chain of KRAS G12S (P62937 whole entry, the tested form may be a part): as the sequence (P62937 whole entry) above
Chain of KRAS G12D (P01116 1-169 isoform P01116-2 G12D limits assumed): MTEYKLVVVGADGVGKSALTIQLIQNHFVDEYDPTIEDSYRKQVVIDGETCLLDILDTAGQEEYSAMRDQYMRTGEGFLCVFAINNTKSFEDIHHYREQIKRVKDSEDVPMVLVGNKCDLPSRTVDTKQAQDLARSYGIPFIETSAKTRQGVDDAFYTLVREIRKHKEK
Chain of KRAS G12D (P62937 whole entry): as the sequence (P62937 whole entry) above
Chain of KRAS G12C (P01116 1-169 isoform P01116-2 G12C limits assumed): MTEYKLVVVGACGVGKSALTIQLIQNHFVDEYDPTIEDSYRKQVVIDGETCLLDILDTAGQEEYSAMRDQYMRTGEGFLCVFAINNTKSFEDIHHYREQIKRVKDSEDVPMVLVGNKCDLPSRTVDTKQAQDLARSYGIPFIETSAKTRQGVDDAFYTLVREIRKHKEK
Chain of KRAS G12C (P62937 whole entry): as the sequence (P62937 whole entry) above
Chain of KRAS G12V (P01116 1-169 isoform P01116-2 G12V limits assumed): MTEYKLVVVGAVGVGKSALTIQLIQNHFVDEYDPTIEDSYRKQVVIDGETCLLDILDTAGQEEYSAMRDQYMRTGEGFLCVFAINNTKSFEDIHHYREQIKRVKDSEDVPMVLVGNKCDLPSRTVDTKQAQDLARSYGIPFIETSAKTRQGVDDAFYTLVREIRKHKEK
Chain of KRAS G12V (P62937 whole entry): as the sequence (P62937 whole entry) above
Chain of KRAS WT (P01116 1-169 isoform P01116-2 limits assumed): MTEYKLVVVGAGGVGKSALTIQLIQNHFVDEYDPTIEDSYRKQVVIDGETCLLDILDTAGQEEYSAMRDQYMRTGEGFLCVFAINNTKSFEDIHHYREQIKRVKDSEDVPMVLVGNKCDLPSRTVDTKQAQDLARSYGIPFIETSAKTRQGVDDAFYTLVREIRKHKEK
Chain of KRAS WT (P62937 whole entry): as the sequence (P62937 whole entry) above
Chain of KRAS G13D (P01116 1-169 isoform P01116-2 G13D limits assumed): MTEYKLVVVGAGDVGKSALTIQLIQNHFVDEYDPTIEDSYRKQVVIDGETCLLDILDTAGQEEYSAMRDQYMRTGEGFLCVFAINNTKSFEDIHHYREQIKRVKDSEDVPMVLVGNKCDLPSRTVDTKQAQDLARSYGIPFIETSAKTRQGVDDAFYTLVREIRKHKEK
Chain of KRAS G13D (P62937 whole entry): as the sequence (P62937 whole entry) above
Chain of KRAS G13C (P01116 1-169 isoform P01116-2 G13C limits assumed): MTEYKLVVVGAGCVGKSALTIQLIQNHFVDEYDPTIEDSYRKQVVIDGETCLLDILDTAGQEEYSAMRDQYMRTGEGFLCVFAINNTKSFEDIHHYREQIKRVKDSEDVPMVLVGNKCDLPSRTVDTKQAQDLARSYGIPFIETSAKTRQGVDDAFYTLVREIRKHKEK
Chain of KRAS G13C (P62937 whole entry): as the sequence (P62937 whole entry) above

Regarding `CCn1c(-c2cccnc2[C@H](C)OC)c2c3cc(ccc31)-c1cccc(c1)C[C@H](NC(=O)[C@H](C(C)C)N1CC[C@H](CN=C=NCCOC)C1)C(=O)N1CCC[C@H](N1)C(=O)OCC(C)(C)C2` [Compound 122], the half-maximal inhibitory concentration (IC50) at KRAS G12S (setting [1]) was 1000 to 10000 nM; in the assay with AsPC-1 (K-Ras G12D) (setting [2]), 1000 to 10000 nM; at KRAS G12V (setting [3]), 1000 to 10000 nM; on KRAS G12D (setting [4]) it was 1000 to 10000 nM; at KRAS WT (setting [5]), 1000 to 10000 nM; on KRAS G13C (setting [6]) it was 100 to 1000 nM. The IC50 is 100 to 1000 nM on NRAS G12C (setting [7]), above 10000 nM on KRAS G13D (setting [8]) and 100 to 1000 nM on KRAS G12C (setting [9]).

As to `CCn1c(-c2cnccc2COC)c2c3cc(ccc31)-c1cc(O)cc(c1)C[C@H](NC(=O)[C@H](C(C)C)N(C)C(=O)CN1C(=O)[C@@H]3[C@H](C1=O)N3Cc1ccccc1)C(=O)N1CCC[C@H](N1)C(=O)OCC(C)(C)C2` (stereo partly drawn) [Example 55, (2S)-2-(2-((1R,5S)-6-benzyl-2,4-dioxo-3,6-diazabicyclo[3.1.0]hexan-3-yl)-N-methylacetamido)-N-((6^3S,4S)-1^1-ethyl-2^5-hydroxy-1^2-(4-(methoxymethyl)pyridin-3-yl)-10,10-dimethyl-5,7-dioxo-6^1,6^2,6^3,6^4,6^5,6^6-hexahydro-1^1H-8-oxa-1(5,3)-indola-6(1,3)-pyridazina-2(1,3)-benzenacycloundecaphane-4-yl)-3-methylbutanamide], the IC50 at KRAS G12S (setting [1]) was 100 to 1000 nM; with AsPC-1 (K-Ras G12D) (setting [2]), above 10000 nM; on KRAS G12V (setting [3]) it was 100 to 1000 nM; on KRAS G12D (setting [4]), above 10000 nM; on KRAS WT (setting [5]) it was 1000 to 10000 nM; at KRAS G13C (setting [6]), 100 to 1000 nM. For the same compound, the IC50 at NRAS G12C (setting [7]) fell in the range of 100 to 1000 nM; on KRAS G13D (setting [8]), 1000 to 10000 nM; on KRAS G12C (setting [9]), 100 to 1000 nM.

Turning to `CCn1c(-c2cnccc2COC)c2c3cc(ccc31)-c1cc(O)cc(c1)C[C@H](NC(=O)[C@H](C(C)C)N(C)C(=O)CN(C)C(=O)[C@H]1N[C@H]1c1ccccc1)C(=O)N1CCC[C@H](N1)C(=O)OCC(C)(C)C2` [Compound 116], the 50% inhibitory concentration (IC50) against KRAS G12S was 100 to 1000 nM; in the assay with AsPC-1 (K-Ras G12D) (read-out: AsPC-1 Cell Viability IC50, AsPC-1, K-Ras G12D, 5-day treatment), above 10000 nM; against KRAS G12V, 100 to 1000 nM; at KRAS G12D, 1000 to 10000 nM; against KRAS WT it was 10 to 100 nM; on KRAS G13C it was 100 to 1000 nM. Also, the IC50 against NRAS G12C (NRAS G12C FRET data IC50, NRAS G12C) was in the range of 100 to 1000 nM; against KRAS G13D, 100 to 1000 nM; against KRAS G12C, 100 to 1000 nM.

For `CCn1c(-c2cccnc2[C@H](C)OC)c2c3cc(ccc31)-c1cc(O)cc(c1)C[C@H](NC(=O)[C@H](C(C)C)N(C)C(=O)N1CCN(C(=O)[C@@H]3CN3)CC1)C(=O)N1CCC[C@H](N1)C(=O)OCC(C)(C)C2` (atropisomer, axis not shown) [Compound 197], the IC50 on KRAS G12S (setting [1]) lay in the range of 10 to 100 nM; in the assay on AsPC-1 (K-Ras G12D) (setting [2]), 1000 to 10000 nM; on KRAS G12V (setting [3]), 10 to 100 nM; on KRAS G12D (setting [4]) it was 100 to 1000 nM; at KRAS WT (setting [5]) it was 10 to 100 nM; at KRAS G13C (setting [6]) it was 10 to 100 nM. Also, the half-inhibitory concentration (IC50) on NRAS G12C (setting [7]), on KRAS G13D (setting [8]) and at KRAS G12C (setting [9]) was 10 to 100 nM each time.

Take `CCn1c(-c2cccnc2[C@H](C)OC)c2c3cc(ccc31)-c1cc(O)cc(c1)C[C@H](NC(=O)[C@H](C(C)C)N1CCC3(CCN(C(=O)[C@@H]4CN4)CC3)C1=O)C(=O)N1CCC[C@H](N1)C(=O)OCC(C)(C)C2` [Compound 195]: the IC50 was 100 to 1000 nM at KRAS G12S (setting [1]); above 10000 nM with AsPC-1 (K-Ras G12D) (setting [2]); 100 to 1000 nM on KRAS G12V (setting [3]); 1000 to 10000 nM at KRAS G12D (setting [4]); 10 to 100 nM on KRAS WT (setting [5]); below 10 nM on KRAS G13C (setting [6]). Further, the IC50 on NRAS G12C (setting [7]), on KRAS G13D (setting [8]) and on KRAS G12C (setting [9]) was 10 to 100 nM throughout.

As usually defined, the IC50 is the concentration that inhibits the measured activity by half.
